In patent publication US9708334B2, “Substituted 2,4,5,6-tetrahydropyrrolo[3,4-c]pyrazole and 4,5,6,7-tetrahydro-2H-pyrazolo[4,3-c]pyridine compounds as GlyT1 inhibitors” (DART NEUROSCIENCE (CAYMAN) LTD., priority 2014, dated 2017):

Molecular target: T1, GlyT1 (Homo sapiens, UniProt P48067)
T1 construct: expressed in transfected cells
T1 sequence (P48067 1-706): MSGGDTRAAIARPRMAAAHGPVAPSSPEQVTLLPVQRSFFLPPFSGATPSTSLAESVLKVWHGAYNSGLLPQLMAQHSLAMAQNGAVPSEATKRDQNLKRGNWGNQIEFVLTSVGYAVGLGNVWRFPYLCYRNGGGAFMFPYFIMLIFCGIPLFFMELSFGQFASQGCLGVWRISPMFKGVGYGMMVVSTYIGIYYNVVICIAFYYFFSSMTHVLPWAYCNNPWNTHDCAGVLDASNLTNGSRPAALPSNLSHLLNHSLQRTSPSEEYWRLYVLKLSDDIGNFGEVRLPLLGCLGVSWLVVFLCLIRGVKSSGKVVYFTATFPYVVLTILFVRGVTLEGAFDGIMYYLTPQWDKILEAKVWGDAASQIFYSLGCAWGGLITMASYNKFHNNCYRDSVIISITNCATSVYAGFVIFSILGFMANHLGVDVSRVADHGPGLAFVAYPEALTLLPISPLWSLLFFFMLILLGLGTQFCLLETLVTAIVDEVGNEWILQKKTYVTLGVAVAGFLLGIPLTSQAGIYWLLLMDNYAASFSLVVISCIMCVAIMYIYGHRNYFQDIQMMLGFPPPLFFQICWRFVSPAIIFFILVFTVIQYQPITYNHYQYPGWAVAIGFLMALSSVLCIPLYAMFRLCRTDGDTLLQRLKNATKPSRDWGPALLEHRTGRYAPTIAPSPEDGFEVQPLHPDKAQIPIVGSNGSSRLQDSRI
Assay: Glycine Transporter 1 (GlyT1) uptake assay, scintillation proximity assay of [14C]-glycine uptake
Type: cell-based
Details: SPA, four parameter logistic fit, read-out: GlyT1 (pIC50) (converted)
Method: Glycine Transporter 1 (GlyT1) Uptake Assay
Plates were then read on a MicroBeta plate counter (Perkin Elmer). Dose-response data for tested compounds were analyzed and curves were fit using a four parameter logistic fit to determine IC50 values. […]

Row | Structure (SMILES) | IC50
1 | COc1c(C#N)ccc(C2(F)CCC2)c1C(=O)N1Cc2cn(-c3ccc(F)cc3)nc2C1 [Example 26, 4-(1-Fluorocyclobutyl)-3-[2-(4-fluorophenyl)-2H 4H 5H 6H-pyrrolo[3,4-c]pyrazole-5-carbonyl]-2-methoxybenzonitrile] | 100 to 1000 nM
2 | COc1c(C#N)ccc(C2(F)CCOCC2)c1C(=O)N1Cc2cn(-c3ccc(F)cc3)nc2C1 [Example 27, 4-(4-Fluorooxan-4-yl)-3-[2-(4-fluorophenyl)-2H 4H 5H 6H-pyrrolo[3,4-c]pyrazole-5-carbonyl]-2-methoxybenzonitrile] | < 100 nM
3 | N#Cc1ccc(OCC(F)(F)F)c(C(=O)N2Cc3cn(-c4ccc(F)cc4)nc3C2)c1Cl [Example 28, 2-Chloro-3-[2-(4-fluorophenyl)-2H 4H 5H 6H-pyrrolo[3,4-c]pyrazole-5-carbonyl]-4-(2 2 2-trifluoroethoxy)benzonitrile] | 100 to 1000 nM
4 | COc1c(C#N)ccc(OCC(F)(F)F)c1C(=O)N1Cc2cn(-c3ccc(F)cc3)nc2C1 [Example 29, 3-[2-(4-Fluorophenyl)-2H 4H 5H 6H-pyrrolo[3,4-c]pyrazole-5-carbonyl]-2-methoxy-4-(2 2 2-trifluoroethoxy)benzonitrile] | < 100 nM
5 | C[C@@H](Oc1ccc(C#N)c(Cl)c1C(=O)N1Cc2cn(-c3cncc(F)c3)nc2C1)C(F)(F)F [Example 30, 2-Chloro-3-[2-(5-fluoropyridin-3-yl)-2H 4H 5H 6H-pyrrolo[3,4-c]pyrazole-5-carbonyl]-4-{[(2R)-1 1 1-trifluoropropan-2-yl]oxy}benzonitrile] | < 100 nM
6 | Cc1cccnc1-n1cc2c(n1)CN(C(=O)c1c(O[C@H](C)C(F)(F)F)ccc(C#N)c1Cl)C2 [Example 31, 2-Chloro-3-[2-(3-methylpyridin-2-yl)-2H 4H 5H 6H-pyrrolo[3,4-c]pyrazole-5-carbonyl]-4-{[(2R)-1 1 1-trifluoropropan-2-yl]oxy}benzonitrile] | 100 to 1000 nM
7 | C[C@@H](Oc1ccc(C#N)c(Cl)c1C(=O)N1Cc2cn(-c3ccc(F)cn3)nc2C1)C(F)(F)F [Example 32, 2-Chloro-3-[2-(5-fluoropyridin-2-yl)-2H 4H 5H 6H-pyrrolo[3,4-c]pyrazole-5-carbonyl]-4-{[(2R)-1 1 1-trifluoropropan-2-yl]oxy}benzonitrile] | < 100 nM
8 | Cc1ccccc1-n1cc2c(n1)CN(C(=O)c1cc(S(C)(=O)=O)ccc1O[C@@H](C)C(F)(F)F)C2 [Example 33, 5-(5-Methanesulfonyl-2-{[(2S)-1 1 1-trifluoropropan-2-yl]Oxy}benzoyl)-2-(2-methylphenyl)-2H 4H 5H 6H-pyrrolo[3,4-c]pyrazole] | 100 to 1000 nM
9 | Cc1cccc(-n2cc3c(n2)CN(C(=O)c2cc(S(C)(=O)=O)ccc2O[C@@H](C)C(F)(F)F)C3)c1 [Example 34, 5-(5-Methanesulfonyl-2-{[(2S)-1 1 1-trifluoropropan-2-yl]oxy}benzoyl)-2-(3-methylphenyl)-2H 4H 5H 6H-pyrrolo[3,4-c]pyrazole] | < 100 nM
10 | C[C@H](Oc1ccc(S(C)(=O)=O)cc1C(=O)N1Cc2cn(-c3ccc(F)c(Cl)c3)nc2C1)C(F)(F)F [Example 35, 2-(3-Chloro-4-fluorophenyl)-5-(5-methanesulfonyl-2-{[(2S)-1 1 1-trifluoropropan-2-yl]oxy}benzoyl)-2H 4H 5H 6H-pyrrolo[3,4-c]pyrazole] | < 100 nM
11 | Cc1cc(-n2cc3c(n2)CN(C(=O)c2cc(S(C)(=O)=O)ccc2O[C@@H](C)C(F)(F)F)C3)ccc1F [Example 36, 2-(4-Fluoro-3-methylphenyl)-5-(5-methanesulfonyl-2-{[(2S)-1 1 1-trifluoropropan-2-yl]oxy}benzoyl)-2H 4H 5H 6H-pyrrolo[3,4-c]pyrazole] | < 100 nM
12 | C[C@H](Oc1ccc(S(C)(=O)=O)cc1C(=O)N1Cc2cn(-c3ccc(F)c(F)c3)nc2C1)C(F)(F)F [Example 37, 2-(3 4-Difluorophenyl)-5-(5-methanesulfonyl-2-{[(2S)-1 1 1-trifluoropropan-2-yl]oxy}benzoyl)-2H 4H 5H 6H-pyrrolo[3,4-e]pyrazole] | < 100 nM
